Results on three compounds are retold here after patent publication US6451820B1, “Substituted 1-(4-aminophenly)triazoles and their use as anti-inflammatory agents” (Boehringer Ingelheim Pharmaceuticals, Inc., priority 2000, dated 2002).

Each structure is given as a SMILES string. Where two headings read alike, the source gives them in different places.

The subject of this test is IL-2 promoter/enhancer. In words: IL-2 promoter assay (luciferase reporter in J.1F/C6 Jurkat cells). Particulars: Homo sapiens. In kind it is cell-based. The source says: The IL-2 promoter assay measures transcriptional activation of a luciferase reporter gene which has been placed under control of the IL-2 promoter/enhancer. All the known regulatory features of the IL-2 gene are contained within a ˜300 bp sequence immediately upstream of the open reading frame. The region −328 to +35 relative to the transcription start site of the IL-2 gene is obtained by […] of human genomic DNA and is subcloned into the promoterless luciferase reporter vector pGL2-Basic (Promega). The resulting construct, pIL2P-luc, and a vector containing a neomycin resistance gene, pcDNA/Neo (Invitrogen), are linearized and stably transfected into Jurkat cells (a human T cell line) by electroporation.
For screening compounds, the cells are pelleted by centrifugation, washed once with PBS, resuspended in RPMI (phenol red-free) containing 5% FBS, and dispensed into 96-well, white microtiter plates (Packard) at 50,000 cells/well. The cells are pre-incubated with compounds (1 μg/ml) for 15 min prior to addition of ionomycin (1 μg/ml) and PMA (10 ng/ml) in a final volume of 100 μl. Following a 5 hr incubation at 37° C. in a humidified incubator, 100 μl of Luc-Lite lysis buffer/luciferase assay buffer (Promega) is added and luminescence measured using a Packard TopCount scintillation counter/luminometer.
In general terms: A reporter such as luciferase makes a cellular process visible.

Setting [1] is: J.1F/C6 Jurkat cells stimulated with ionomycin and PMA, luciferase reporter, read-out: IC50.

The term IC50 denotes the concentration that inhibits the measured activity by half. In the case of `CSc1nc(-c2ccncc2)nn1-c1ccc(NCc2sccc2C)cc1` [Example 2, (3-Methylthien-2-ylmethyl)-[4-(5-methylthio-3-pyridin-4-yl-1H-1,2,4-triazol-1-yl)phenyl]amine], under setting [1], the IC50 is under 10 µM. On to `CSc1nc(-c2ccncc2)nn1-c1ccc(NC(=O)c2cccnc2)cc1` [Example 1], for which the 50% inhibitory concentration (IC50) under setting [1] is under 10 µM. For the compound `C=CC[C@@H]1/C=C(\C)C[C@H](C)C[C@H](OC)[C@H]2O[C@@](O)(C(=O)C(=O)N3CCCC[C@H]3C(=O)O[C@H](/C(C)=C/[C@@H]3CC[C@@H](O)[C@H](OC)C3)[C@H](C)[C@@H](O)CC1=O)[C@H](C)C[C@@H]2OC` [FK506, reference compound], the half-inhibitory concentration (IC50) (J.1F/C6 Jurkat cells treated with ionomycin and PMA, cell line validation, read-out: IC50, inhibition of luciferase activity) amounted to 0.0003 µM.
